In brackets after ≈: the same amount, converted by molar mass.
Columns and labels:
[1] = system: Staphylococcus aureus and Staphylococcus epidermis, both resistant to quinolone antibacterial agents; test: Antibacterial activity in vitro, potency comparison; format: cell-based; conditions: against resistant staphylcoccus aureus and staphylococcus epidermis (Table 2)
Method: (§1) The optically active quinoline carboxylic acid derivatives of the present invention were tested as to whether they could be useful as antibacterial compounds. In this regard, the compounds were measured for minimum inhibitory concentration (MIC: unit μg/ml) according to an agar dilution process (Hoechst 345) in which Muller-Hinton agars were diluted two fold. For comparison, ciprofloxacin and sparfloxacin were used as controls. Corresponding enantiomers and racemates of the compounds of interest were also used as comparative ones. Bacteria were inoculated at an amount of about 10^7 cfu/ml onto each agar. 18 hours after the inoculation at 37° C., the growth of the bacteria was observed. As to methicillin-resistant strains, their growth was observed 48 hours after the inoculation at […]. Hoechst standard strains were used as the test bacteria.

Enterobacter cloacae P99 = test: Antibacterial activity in vitro (MIC, agar dilution); format: cell-based; conditions: standard strain Enterobacter cloacae P99, read-out: minimum inhibitory concentration (MIC)
From the text: Corresponding enantiomers and racemates of the compounds of interest were also used as comparative ones. Bacteria were inoculated at an amount of about 10^7 cfu/ml onto each agar. […] Hoechst standard strains were used as the test bacteria.

[2] = system: Streptococus pyogenes 77A; test: as above; format: cell-based; conditions: standard strain Streptococus pyogenes 77A, read-out: minimum inhibitory concentration (MIC)
Method: as §1

[3] = system: Streptococus pyogenes 308A; test: as above; format: cell-based; conditions: standard strain Streptococus pyogenes 308A, read-out: minimum inhibitory concentration (MIC)
Method: as §1

[4] = system: Staphylococcus aureus 285; test: as above; format: cell-based; conditions: standard strain Staphylococcus aureus 285, read-out: minimum inhibitory concentration (MIC)
Method: as §1

Escherichia coli DC 2 = test: as above; format: cell-based; conditions: DC2, standard strain Escherichia coli DC 2, read-out: minimum inhibitory concentration (MIC)
Method: as §1

Escherichia coli DC 0 = test: as above; format: cell-based; conditions: DC0, standard strain Escherichia coli DC 0, read-out: minimum inhibitory concentration (MIC)
Method: as §1

[5] = system: Staphylococcus aureus 690E; test: as above; format: cell-based; conditions: resistant strain Staphylococcus aureus 690E, read-out: minimum inhibitory concentration (MIC)
Method: as §1

[6] = system: Staphylococcus aureus 256E; test: as above; format: cell-based; conditions: resistant strain Staphylococcus aureus 256E, read-out: minimum inhibitory concentration (MIC)
Method: as §1

[7] = system: Staphylococcus aureus 303; test: as above; format: cell-based; conditions: resistant strain Staphylococcus aureus 303, read-out: minimum inhibitory concentration (MIC)
Method: as §1

[8] = system: Staphylococcus epidermidis 329; test: as above; format: cell-based; conditions: Staphylococcus epidermidis, 329, resistant strain Staphylococcus epidermidis 329, read-out: minimum inhibitory concentration (MIC)
Method: as §1

[9] = system: Staphylococcus aureus 241; test: as above; format: cell-based; conditions: resistant strain Staphylococcus aureus 241, read-out: minimum inhibitory concentration (MIC)
Method: as §1

[10] = system: Staphylococcus aureus 179; test: as above; format: cell-based; conditions: resistant strain Staphylococcus aureus 179, read-out: minimum inhibitory concentration (MIC)
Method: as §1

[11] = system: Staphylococcus aureus 503; test: as above; format: cell-based; conditions: standard strain Staphylococcus aureus 503, read-out: minimum inhibitory concentration (MIC)
Method: as §1

[12] = system: Staphylococcus aureus 693E; test: as above; format: cell-based; conditions: resistant strain Staphylococcus aureus 693E, read-out: minimum inhibitory concentration (MIC)
Method: as §1

[13] = system: Staphylococcus aureus 208E; test: as above; format: cell-based; conditions: resistant strain Staphylococcus aureus 208E, read-out: minimum inhibitory concentration (MIC)
Method: as §1

[14] = system: Staphylococcus epidermidis 319; test: as above; format: cell-based; conditions: Staphylococcus epidermidis, 319, resistant strain Staphylococcus epidermidis 319, read-out: minimum inhibitory concentration (MIC)
Method: as §1

[15] = system: Staphylococcus aureus 121E; test: as above; format: cell-based; conditions: resistant strain Staphylococcus aureus 121E, read-out: minimum inhibitory concentration (MIC)
Method: as §1

[16] = system: Staphylococcus aureus 293; test: as above; format: cell-based; conditions: resistant strain Staphylococcus aureus 293, read-out: minimum inhibitory concentration (MIC)
Method: as §1

[17] = system: Streptococus faecium MD 8b; test: as above; format: cell-based; conditions: standard strain Streptococus faecium MD 8b, read-out: minimum inhibitory concentration (MIC)
Method: as §1

[18] = system: Pseudomonas aeruginosa 1771M; test: as above; format: cell-based; conditions: read-out: minimum inhibitory concentration (MIC)
Method: as §1

[19] = system: Staphylococcus aureus 88E; test: as above; format: cell-based; conditions: resistant strain Staphylococcus aureus 88E, read-out: minimum inhibitory concentration (MIC)
Method: as §1

[20] = system: Staphylococcus aureus SG511; test: as above; format: cell-based; conditions: standard strain Staphylococcus aureus SG511, read-out: minimum inhibitory concentration (MIC)
Method: as §1

[21] = system: Staphylococcus aureus 692E; test: as above; format: cell-based; conditions: resistant strain Staphylococcus aureus 692E, read-out: minimum inhibitory concentration (MIC)
Method: as §1

Pharmacokinetic test = conditions: SD rats, oral, control at 50 mg/5 ml/kg
Method: After being starved for 16 hours, SD rats were orally administered at a dose of 40 mg/5 ml/kg with the compounds of interest and at a dose of 50 mg/5 ml/kg with the control. Immediately after being drawn at predetermined times from the eyeballs, blood was separated into plasma and other ingredients and quantitatively analyzed for pharmacokinetic parameters by use of high performance liquid chromatograph (HPLC).

Phototoxicity test = format: in vivo; conditions: CD-1 female mice, oral 50 mg/kg, after 48 hours of the UV exposure
Method: It is known that the presence of a halogen atom at the 8-position of the quinolone nuclei causes phototoxicity.
After 16 hours of starvation, CD-1 female mice were orally administered with a dose of 50 mg/kg of the compounds and allowed to be exposed for 4.5 hours to a UVA light source. The mice were located 15 cm away from the light source. Whether the mice were damaged in their ears was adopted as a main factor for the phototoxicity and determined after 24 hour and 48 hour UV exposure. The edema which the mice suffered were examined by measuring the thickness changes of their ears with the aid of electronic calipers and calculating average values. Also, an observation was made as to whether the mice suffered from erythema.

Compound	MIC [2] [µg/mL]	MIC [3] [µg/mL]	MIC [4] [µg/mL]	MIC (Escherichia coli DC 2) [µg/mL]	MIC (Escherichia coli DC 0) [µg/mL]	MIC [5] [µg/mL]	MIC [6] [µg/mL]	MIC [7] [µg/mL]	MIC [8] [µg/mL]	MIC [9] [µg/mL]	MIC [10] [µg/mL]	MIC [11] [µg/mL]	MIC [12] [µg/mL]	MIC [13] [µg/mL]	MIC [14] [µg/mL]	MIC [15] [µg/mL]	MIC [16] [µg/mL]	MIC [17] [µg/mL]	MIC [18] [µg/mL]	MIC [19] [µg/mL]	other results
CO/N=C1\CN(c2cc3c(cc2F)c(=O)c(C(=O)O)cn3C2CC2)CC1(C)CN.Cl (single isomer, unassigned; (-)) [Example 19, (−)-7-(4-Aminomethyl-4-methyl-3-(Z)-methyloxyiminopyrrolidin-1-yl)-1-cyclopropyl-6-fluoro-4-oxo-1,4-dihydro-3-quinolinecarboxylic Acid Hydrochloride]	0.013	0.049	0.007	0.195	0.007	0.004	0.007	0.195	0.391	0.195	0.195	0.007	0.007	0.007	0.391	0.007	0.195	0.049	0.195	0.007	fold more potent antibacterial activity than its enantiomer [1]: 12-32 fold; fold more potent antibacterial activity than its racemate [1]: Two-fold higher potency; MIC (Enterobacter cloacae P99): 0.025 µg/mL; MIC [20]: 0.004 µg/mL; MIC [21]: 0.004 µg/mL
O=C(O)c1cn(C2CC2)c2cc(N3CCNCC3)c(F)cc2c1=O [Ciprofloxacin, ciprofloxacin]	0.391 (≈ 1.18 µM)	3.12 (≈ 9.43 µM)	0.781 (≈ 2.36 µM)	0.098 (≈ 0.296 µM)	0.195 (≈ 0.589 µM)	0.391 (≈ 1.18 µM)	0.781 (≈ 2.36 µM)	12.5 (≈ 37.7 µM)	50 (≈ 151 µM)	12.5 (≈ 37.7 µM)	12.5 (≈ 37.7 µM)	0.391 (≈ 1.18 µM)	0.391 (≈ 1.18 µM)	0.781 (≈ 2.36 µM)	100 (≈ 302 µM)	0.781 (≈ 2.36 µM)	12.5 (≈ 37.7 µM)	0.391 (≈ 1.18 µM)	0.098 (≈ 0.296 µM)	0.781 (≈ 2.36 µM)	Area Under Curve (Pharmacokinetic test): 12720 ng·h/mL; MIC [20]: 0.195 µg/mL (≈ 0.589 µM); MIC [21]: 0.391 µg/mL (≈ 1.18 µM)
C[C@@H]1CN(c2c(F)c(N)c3c(=O)c(C(=O)O)cn(C4CC4)c3c2F)C[C@H](C)N1 [Sparfloxacin, sparfloxacin]	0.391 (≈ 0.996 µM)	0.391 (≈ 0.996 µM)	0.009 (≈ 0.0229 µM)	0.025 (≈ 0.0637 µM)	0.195 (≈ 0.497 µM)	0.049 (≈ 0.125 µM)	0.098 (≈ 0.25 µM)	3.12 (≈ 7.96 µM)	12.5 (≈ 31.9 µM)	6.25 (≈ 15.9 µM)	6.25 (≈ 15.9 µM)	0.049 (≈ 0.125 µM)	0.049 (≈ 0.125 µM)	0.098 (≈ 0.25 µM)	12.5 (≈ 31.9 µM)	0.098 (≈ 0.25 µM)	6.25 (≈ 15.9 µM)	0.391 (≈ 0.996 µM)	0.098 (≈ 0.25 µM)	0.098 (≈ 0.25 µM)	MIC (Enterobacter cloacae P99): 0.007 µg/mL (≈ 0.0178 µM); MIC [20]: 0.098 µg/mL (≈ 0.25 µM); MIC [21]: 0.049 µg/mL (≈ 0.125 µM); edema and erythema observed after UV exposure (Phototoxicity test): serious edema and erythema; increase in ear thickness compared with before the UV exposure (Phototoxicity test): 150%

— patent publication US6649763B1, “Optically active quinoline carboxylic acid derivatives with 7-pyrrolidine substituents causing optical activity and a process for the preparation thereof” (Dong Wha Pharm. Ind. Co., Ltd., priority 1999, dated 2003)
